Series [1] concerns HCT-15 cells. Nature of the series: MTT cytotoxicity assay, HCT-15. It counts as cell-based, human. An outline of the steps: (§1)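 MTT viability read-out in HCT-15 and A375 human cancer cells after 72 h compound exposure; triplicate cultures per treatment.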
(Tetrazolium dyes change colour on reduction, which living cells bring about.)

In series [2] the test system is A375 cells. Nature of the series: MTT cytotoxicity assay, A375. It counts as cell-based, human. An outline of the steps: as §1
The test system of series [3] is 2008 cells. Nature of the series: MTT cytotoxicity assay, 2008. It counts as cell-based, human. To be noted: for IC50: 2008, 72 h, MTT. A digest of the protocol: (§2)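 MTT viability read after 72 h compound exposure in human cancer cell lines (lung H157, colon HCT-15, cervical A431, ovarian 2008, pancreatic PSN1, melanoma A375). Triplicate cultures per treatment.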
Series [4] has as its system A431 cells. Nature of the series: MTT cytotoxicity assay, A431. It counts as cell-based, human. To be noted: A431, 72 h. A digest of the protocol: as §2
Series [5] deals with H157 cells. Nature of the series: MTT cytotoxicity assay, H157. It counts as cell-based, human. To be noted: H157, 72 h. A digest of the protocol: as §2
Series [6] deals with PSN1 cells. Nature of the series: MTT cytotoxicity assay, PSN1. The series is classed as cell-based, human. To be noted: for IC50: PSN1, 72 h, MTT. An outline of the steps:
as §2

Series [7] has as its system HCT-15 spheroids. Nature of the series: 3D spheroid APH assay, HCT-15. The series is classed as cell-based, human. To be noted: for IC50: HCT-15 spheroids, 72 h, APH test.
Series [8] deals with BxPC3 spheroids. Nature of the series: 3D spheroid APH assay, BxPC3. It counts as cell-based, human. To be noted: 72 h, APH test.
For series [9], the system named is PSN-1 spheroids. Nature of the series: 3D spheroid APH assay, PSN-1. The series is classed as cell-based, human. To be noted: for IC50: PSN-1 spheroids, 72 h, APH test.
For series [10], the system named is human embryonic kidney HEK293 cells. Nature of the series: MTT cytotoxicity against non-tumor cells. To be noted: for IC50: HEK293 non-tumor cells, 72 h, MTT; for SI (selectivity index): ratio between average IC50 of non-tumor cells and IC50 of malignant cells. The series is classed as cell-based. As to the method:
(§3) MTT assay. […] Triplicate cultures were established for each treatment.
The cytotoxic activity of derivatives 3a and 3b was also evaluated against non-tumor cells, namely human embryonic kidney HEK293 cells (Table 7). Both compounds 3a and 3b were more cytotoxic than CDDP.

In series [11] the test system is Histone deacetylase (HDAC). Nature of the series: Histone deacetylase assay in 2008 cells. It counts as cell-based, human. To be noted: 24 h, IC50 concentrations. As for the experimental part:
(§4) Histone deacetylase assay. Histone deacetylase activity was determined using Fluor-de-Lys® HDAC fluorometric activity assay kit (Enzo Life Sciences International, Inc., Plymount Meeting, Pa., U.S.A.). 2008 and PSN1 cells (5.10^4 seeded in 96-well microplates) were treated for 24 h with tested complexes, and then processed as reported by the manufacturer's instructions. Fluorescence was measured using a Fluoroskan Ascent FL (Labsystem, Finland) plate reader, with excitation at 360 nm and emission at 460 nm.
(§5) Thus, we measured both the levels of DNA platination and the ability of these pro-drugs to inhibit HDAC activity in cancer cells.

In series [12] the test system is Histone deacetylase (HDAC). Nature of the series: Histone deacetylase assay in PSN-1 cells. The series is classed as cell-based, human. To be noted: 24 h, IC50 concentrations. As to the method:
as §4, §5

In series [13] the test system is six human cancer cell lines. Nature of the series: MTT cytotoxicity, over six human cancer cell lines. The series is classed as cell-based. To be noted: on average over tested cell lines. As to the method: as §3
The two dimers, 3a and 3b, as well as compounds 1a and 2a were screened against six human cancer cell lines representative of lung (H157), colon (HCT-15), cervical (A431), ovarian (2008) and pancreatic (PSN1) cancers, along with melanoma (A375). Cytotoxicity was evaluated by means of the MTT test after 72 h of treatment and the in vitro antitumor potential of newly synthesized derivatives was compared to that of the reference metallo-drugs CDDP and OXP.

Series [14] can be described thus: Reduction in buffer in the presence of ascorbic acid. To be noted: 1 Eq ascorbic acid, phosphate buffer, RT, 2 hours. It counts as physicochemical. As to the method: A solution 2.0 mM of 3a (Scheme 4) in buffer was treated with 1 Eq ascorbic acid. NMR measurements were performed over a 2 hour time frame.
In order to assay which of the two Pt metal centers of 3a is more prone to be reduced, we added 1 Eq of ascorbic acid to a solution of 3a in phosphate buffer. […] Finally, we carried out the reaction at RT and not at 37° C. to avoid a fast reduction process that would have made more complicated its study.
The reaction was monitored by ^1H NMR spectroscopy (FIG. 9). Already after 2 min, time needed to prepare the sample and start the NMR experiment, besides the signals belonging to 3a, previously discussed, it was possible to note the signal belonging to [Pt(DACH)(56Phen)]^2+, free phenyl butyric acid and a signal at 6.34 ppm, consistent with a DCA moiety coordinated to a Pt(IV) metal center. These signals indicated the reduction of the phenanthroline-bonded Pt unit of 3a to [Pt(DACH)(56Phen)]^2+, and the release of the axial ligands, […] and c,c,t-[Pt(NH3)2(DCA)(OOCCH2CH2CH2NHCOCH2CH2COOH)] (5). We were not able to isolate the latter species. […] The reaction was monitored for about 2 hours. In FIG. 9 are reported the spectra recorded after 9, 21 and 59 min. In the second hour, no changes were detected.

Setting [15] is: HCT-15, 72 h, MTT (Table 5), read-out: IC50 (μM) ± S.D.
[16] abbreviates: A375, 72 h, MTT (Table 5), read-out: IC50 (μM) ± S.D.

The source of these data is patent US20190290656A1, “PT(IV) PRODRUGS” (YISSUM RESEARCH DEVELOPMENT COMPANY OF THE HEBREW …, priority 2015, published 2019).

Like-named read-outs stand apart in the source and are kept apart here.

Turning to `[NH2][Pt]([NH2])([Cl])[Cl]` [CDDP, Cisplatin, reference compound], the IC50 in series [1] (setting [15]) came out at 15.3 ± 2.63 µM; in [1] (HCT-15, 72 h exposure, MTT (Table 1), read-out: IC50 (median growth inhibitory concentration)) it was 11.3 ± 1.06 µM; in series [2] (setting [16]) it was 3.11 ± 0.98 µM; in [2] (A375, 72 h exposure, MTT (Table 1), read-out: IC50 (median growth inhibitory concentration)), 4.03 ± 0.95 µM; in [3], 2.22 µM; in series [4] it was 1.65 ± 0.51 µM. Moreover, the IC50 in [5] was 3.28 ± 2.38 µM; in series [6], 18.2 µM; in series [7], 89.2 ± 3.44 µM; in series [8], 69.6 ± 8.21 µM; in series [9], 59.9 ± 12.9 µM; in series [10], 19.6 ± 2.95 µM. The “fold more potent than 3b” value in series [3] (2008 cells) is reported as roughly 3 fold. For the same molecule, the “SI (selectivity index)” value in [10] is on record as 2.7. In addition, the HDAC activity hampered entry in series [11] and in series [12] was “not effective in modifying HDAC activity” each time.

For the molecule “c,c,t,t,c,c-[(DACH)(56Phen)(PhBu)Pt(μ-OOC—(CH2)2—CONH(CH2)3COO)—Pt(DCA)(NH3)2 (Cl2)](TFA)2 [Compound 3a]”, the IC50 in [1] (setting [15]) was found to be 0.36 ± 0.08 µM; in series [2] (setting [16]), 0.08 ± 0.01 µM; in [3] it was 0.79 µM; in series [4], 0.2 ± 0.09 µM; in series [5], 0.95 ± 0.08 µM; in [6] it was 0.09 µM. Further, the IC50 in [7] came out at 40 ± 4.58 µM; in [8], 59.1 ± 3.84 µM; in series [9], 10.3 ± 4.85 µM; in [10] it was 2.25 ± 0.29 µM. The “times more effective than CDDP” value is on record as “up to 200 fold” in series [6] (PSN1 cells) and “about 2 fold” in series [7] (HCT-15 3D model). The “times more effective than OXP” value in [6] (PSN1 cells) is listed as no more than 92 fold. Further, in series [13], the “times more potent than compound 3b” value was “about 12 fold”. The “factor by which activity exceeded that of the reference drugs” value in [9] (PSN-1 3D model) is “about 6 fold”. Moreover, the “times SI better than that of cisplatin” value in [10] is on record as “about 2 fold”. Further, in [10], the “SI (selectivity index)” value was found to be 5.5. In series [14], the “reduction by ascorbic acid (in words)” value is listed as “faster reduction of the phenanthroline-bonded Pt unit”. Moreover, the HDAC activity hampered result is recorded as “about 8%” in [11] and roughly 10% in [12].
